Tests used:
[1] = Photolysis of JCF 1 in MeOH under 368.8 nm irradiation, followed by mass spectrometry; format: physicochemical; conditions: 100 μM in MeOH; 368.8 nm±5 nm; approximately 12.5 mW/cm^2
Protocol: The photolysis of JCF 1 is carried out under controlled conditions in order to quantitatively detect the release of forskolin carbamate 10 as a function of the amount of light absorbed: 0.16 ml of a 100 μM solution of JCF 1 in MeOH is added to a quartz glass cuvette (width: 4 mm; depth (optical path): 10 mm->fill level 4 mm). The “Intensilight” light source (excitation lamp of a Nikon TI Eclipse fluorescence microscope) is used as the excitation source, the light of which is guided through a gel light guide (active diameter: 4 mm) and a narrowband bandpass filter (368.8 nm±5 nm) onto the liquid column in the cuvette. […]
The irradiated samples are then examined using mass spectrometry (mass spectrometer: MSQ Plus from ThermoScientific; ionization: ESI-interface with a cone voltage of 50 V, eluent: methanol, water, glacial acetic acid, /50, 50, 0.02/vol, vol, vol; flow rate 0.2 ml/min; direct injections of 20 μl of the respective irradiated samples via a Rheodyne injection valve (7725i)). The mass trace m/z 511 and the mass range m/z 807-811 are recorded. The integrals of the peaks of the chromatogram of the mass trace m/z 511 (see FIG. 10) are evaluated. With an exposure time of 320 seconds, no more signals can be detected in the mass range m/z 807-811 (starting compound), and therefore a complete conversion can be assumed after this time under the above-described conditions.

[2] = tested on: peripheral membrane adenylyl cyclases; assay: Validation on eukaryotic cell line expressing CNG channel and GCaMP3.0: Ca2+-dependent fluorescence as readout of intracellular cAMP increase after UV exposure; format: cell-based; conditions: 100 μM IBMX
Excerpt: The substance JCF 1 described according to embodiments of the invention was validated on eukaryotic cell cultures in which the increase in the intracellular cAMP concentration, which results from the binding of the biologically active forskolin carbamate 10 (FIG. 9) to peripheral membrane adenylyl cyclases which are endogenously present in the cells, using a fluorescence-based sensitive detection process.^14 In this regard, a cell line was used in which a cyclic-nucleotide-gated (CNG) ion channel is constitutively expressed. These channels are typically expressed in olfactory sensory neurons of the olfactory epithelium and open when the intracellular cAMP concentration increases. […] The inflow of Ca^2+ can be detected with Ca^2+-sensitive dyes or genetically encoded Ca^2+ indicators, such as GCaMP sensors, in a fluorescence reader or with a fluorescence microscope. […] The Ca^2+-dependent change in the fluorescence change can be detected and quantified with the aforementioned processes.
Cells of the cell line described were seeded in 96-well multi-well plates (MWP) and increased to a density of approximately 25,000. […] The basal fluorescence in the wells of 96-well MWP was then measured with a fluorescence reader. […] The basal fluorescence in the wells was then measured again before the entire 96-well MWP plate was exposed to light using a UV lamp device (FIG. 11, FIG. 12). […]

exposure time after which no more signals of starting compound (m/z 807-811) can be detected; complete conversion assumed [1]: 320 s
SMILES: C=C[C@@]1(C)CC(=O)[C@]2(O)[C@@]3(C)[C@@H](O)CCC(C)(C)[C@@H]3[C@H](OC(=O)NCCN(C)C(=O)OCc3cc(=O)oc4cc(O)c(Br)cc34)[C@H](OC(C)=O)[C@@]2(C)O1 [JCF 1, (3R,4aR,5S,6S,6aS,10S,10aR,10bS)-6-(((2-((((6-bromo-7-hydroxy-2-oxo-2H-chromen-4-yl)methoxy)carbonyl)(methyl)amino)ethyl)carbamoyl)oxy)-10,10b-dihydroxy-3,4a,7,7,10a-pentamethyl-1-oxo-3-vinyldodecahydro-1H-benzo[f]chromen-5-yl acetate]
change in fluorescence relative to the values achieved by adding non-caged NKH 477 ([2]; 10 μM and 30 μM, after UV exposure): approximately 50%
Ca2+-dependent fluorescence emission after UV exposure (release of forskolin carbamate 10) ([2]; cells loaded with 10 μM and 30 μM for 30 min in the dark, UV lamp exposure): significant increase

Source: patent publication US20220242843A1, “PROCESS FOR PREPARING A COUMARIN-CAGED FORSKOLIN DERIVATIVE, FORSKOLIN DERIVATIVE AND USE OF SAID FORSKOLIN DERIVATIVE” (Forschungszentrum Juelich GmbH, priority 2019, published 2022)
